Results published in US11136324B2, “Substituted imidazoles as apoptosis signal regulating kinase 1 inhibitors” (Jiangsu Hansoh Pharmaceutical Group Co., Ltd., priority 2017, dated 2021).

What was measured:
[1] = Pharmacokinetic (PK) assay in mice; assay type: in vivo; details: Balb/c male mice, single intragastric administration, 5 mg/kg, plasma; for AUC(0-t) / AUC(0-inf) / half-life / MRT / Cmax: mouse, po; for AUC(0-t): read-out: Area under curve AUC0-t; for AUC(0-inf): read-out: Area under curve AUC0-∞; for half-life: read-out: Half-life t1/2 (converted); for MRT: read-out: Mean residence time MRT; for Cmax: read-out: Plasma concentration Cmax
Description: 2. Pharmacokinetic (PK) Assay in Mice
The pharmacokinetic test of the preferred examples of the present invention in mice was carried out in Balb/c male mice (Shanghai Jiesijie Laboratory Animal Co., LTD).
Administration mode: single intragastric administration.
Administration dosage: 5 mg/10 ml/kg.
Formulation: 0.5% CMC-Na, ultrasonic dissolution.
Sampling points: 0.5, 1, 2, 4, 6, 8 and 24 hours after administration.
1) 0.1 mL of blood was taken from the orbit, placed in a K2EDTA tube, and centrifuged for 5˜20 min at room temperature at 1000˜3000×g to separate the plasma, which was then stored at −80° C.
2) 160 μL of acetonitrile was added to 40 μL of plasma sample for precipitation, and then the mixture was centrifuged for 5˜20 minutes at 500˜2000×g.
3) 100 μL, of processed supernatant was taken and analyzed by LC/MS/MS assay to determine the concentration of the test compound.
LC-MS/MS Assay: • Liquid chromatography condition: Shimadzu LC-20AD pump • Mass spectrometry condition: AB Sciex API 4000 mass spectrometer • Chromatographic column: phenomenex Gemiu 5 μm C18 50×4.6 mm • Mobile phase: solution A was 0.1% aqueous formic acid solution, and solution B was acetonitrile • Flow rate: 0.8 mL/min • Elution time: 0-3.5 minutes gradient elution
The main parameters were calculated using WinNonlin 6.1.

[2] = target: ASK1 kinase (Homo sapiens (Human), UniProt Q99683); assay: ASK1 enzymatic test (TR-FRET); assay type: biochemical; details: ASK1 kinase activity
Description: In this test, the fluorescence-resonance energy transfer (TR-FRET) method was used to determine the inhibition effect of the test compounds on ASK1 kinase activity, and the half maximal inhibitory concentration IC50 of the compounds on ASK1 kinase activity was obtained.
1) 1˜5 μL of ASK1 enzyme solution was added to a 384-well plate, and the final concentration of the enzyme was 0.220 nM.
2) 1˜5 μL of gradient-diluted compound solution was added.
3) 1˜5 μL of a substrate mixture containing substrate polypeptides (final concentration: 100˜5000 nM) and ATP (final concentration: 100˜1000 uM) were added.
4) The mixture was incubated at room temperature for 0.5 to 5 hours.
5) 10 μL of EDTA and test solution containing labeled antibody were added, and the plate was incubated at room temperature for 2 to 24 hours.
6) The fluorescence signal value of each well was determined by a microplate reader at about 615 nm and 665 nm.
7) The inhibition rate was calculated by the fluorescence signal value.
8) The IC50 of the compound was obtained by curve fitting according to the inhibition rate at different concentrations.

[3] = system: non-alcoholic steatohepatitis mice induced by HFD (high fat diet)+CCl4; assay: Effect on serum ALT and AST levels of non-alcoholic steatohepatitis mice induced by HFD+CCl4; assay type: in vivo, C57BL/6 mice; parameters: concentration or dose not given beside the values; details: oral once a day for 28 days, versus solvent control group
Excerpt: 3. The effect of the compounds of the present invention on the ALT and AST levels of non-alcoholic steatohepatitis mice induced by HFD (high fat diet)+CCl4
The object of this test example is to determine whether the compounds of the present invention can down-regulate the ALT and AST levels in the serum of non-alcoholic steatohepatitis mice or not.
C57BL/6 mice were adaptively fed in a SPF (specific pathogen free) barrier for 3 to 7 days, and then fed with HFD feed with a feeding cycle of 8 weeks. At the fifth week of HFD feeding, the HFD-induced mice were randomly grouped according to body weight, and orally administrated with CCl4 twice a week for 4 weeks. At the day of modeling with CCl4, the test compounds were orally administrated once a day continuously for 28 days. The solvent control group was administrated with the corresponding solvent of the test compounds with an administration volume of 10 mL/kg. The mice were euthanized with CO2 48 hours after the last administration of CCl4, and the non-anticoagulated venous blood was collected from the heart. The whole blood was left to stand at room temperature for at least 30 minutes, and then centrifuged for 5 minutes at 4° C. at 5000 rpm to separate the serum. The serum was dispensed into two portions in 1.5 mL EP tubes, and stored at −80° C. for later use.
The ALT and AST levels in mice serum were determined using the alanine aminotransfease (ALT/GPT) kit and aspartate aminotransferase (AST/GOT) kit. The ALT (or AST) test substrate solution was preheated in a 37° C. incubator; 20 μL of substrate solution were pipetted into a 96-well plate, and 5 μL of serum were pipetted into the 96-well plate as test well. After mixing well, the plate was sealed using a sealing film, and placed into the 37° C. incubator to incubate for 30 min. The ALT (or AST) standard curve was formulated, and 25 μL of which were pipetted into the 96-well plate; 20 μL of […] were pipetted into the 96-well plate as control well; 20 μL of 2,4-dinitrophenylhydrazine solution were added to each well. After mixing well, the plate was sealed using a sealing film, and placed into the 37° C. incubator to incubate for 20 min. 200 μL of 0.4 M NaOH solution were added to each well. The plate was placed on a shaker to shake for 15 min, and then measured on the BioTek Synergy H1 instrument using OD detection program at a wavelength of 510 nm. The absolute OD value was calculated from the OD value of each well. Absolute OD value=OD value of measured well−OD value of control well. The absolute OD value was taken into the standard curve to obtain the ALT (or AST) content of the sample. Samples that exceed the standard curve range should be re-tested after diluting the serum to an appropriate concentration. Data processing: (% ALT reduction rate)=(solvent control group−test compound)/solvent control group×100%; (% AST reduction rate)=(solvent control group−test compound)/solvent control group×100%.

Chain of ASK1 kinase (Q99683 whole entry): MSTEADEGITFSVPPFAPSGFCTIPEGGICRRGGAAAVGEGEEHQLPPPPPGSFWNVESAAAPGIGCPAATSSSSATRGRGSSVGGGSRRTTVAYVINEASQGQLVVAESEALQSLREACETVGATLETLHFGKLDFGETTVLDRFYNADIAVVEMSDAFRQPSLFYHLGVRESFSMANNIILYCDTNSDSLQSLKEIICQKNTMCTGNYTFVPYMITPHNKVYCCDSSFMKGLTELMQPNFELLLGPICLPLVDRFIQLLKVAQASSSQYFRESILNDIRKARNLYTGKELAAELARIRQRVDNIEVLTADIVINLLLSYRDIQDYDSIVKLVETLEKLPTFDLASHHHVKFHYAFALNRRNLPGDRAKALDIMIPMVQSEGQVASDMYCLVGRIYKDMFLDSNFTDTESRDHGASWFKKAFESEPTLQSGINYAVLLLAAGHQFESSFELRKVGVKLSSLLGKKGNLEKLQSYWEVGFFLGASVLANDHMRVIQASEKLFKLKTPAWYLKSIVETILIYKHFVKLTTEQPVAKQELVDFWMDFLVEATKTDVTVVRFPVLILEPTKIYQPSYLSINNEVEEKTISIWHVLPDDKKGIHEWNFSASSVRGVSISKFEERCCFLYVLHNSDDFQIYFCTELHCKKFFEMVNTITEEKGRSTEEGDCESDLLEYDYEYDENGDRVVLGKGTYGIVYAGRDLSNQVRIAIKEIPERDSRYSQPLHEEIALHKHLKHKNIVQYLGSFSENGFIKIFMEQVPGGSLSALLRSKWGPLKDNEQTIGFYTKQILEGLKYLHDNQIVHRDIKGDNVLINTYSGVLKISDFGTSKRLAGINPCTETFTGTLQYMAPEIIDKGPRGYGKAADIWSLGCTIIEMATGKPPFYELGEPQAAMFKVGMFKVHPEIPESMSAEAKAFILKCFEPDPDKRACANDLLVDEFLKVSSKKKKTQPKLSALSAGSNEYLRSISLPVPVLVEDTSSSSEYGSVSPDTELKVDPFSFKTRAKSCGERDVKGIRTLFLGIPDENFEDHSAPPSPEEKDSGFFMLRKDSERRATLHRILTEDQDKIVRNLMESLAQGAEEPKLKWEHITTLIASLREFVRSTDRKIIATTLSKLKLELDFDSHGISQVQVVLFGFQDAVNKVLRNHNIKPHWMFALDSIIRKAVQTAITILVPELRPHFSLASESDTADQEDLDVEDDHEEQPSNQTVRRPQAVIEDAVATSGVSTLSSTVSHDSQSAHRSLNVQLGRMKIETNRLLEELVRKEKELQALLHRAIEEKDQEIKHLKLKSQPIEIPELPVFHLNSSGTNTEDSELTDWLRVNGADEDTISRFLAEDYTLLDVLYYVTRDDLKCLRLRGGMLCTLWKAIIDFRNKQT

Cc1cc(F)c(C(=O)Nc2cccc(-c3nnc4n3C(C)(C)CC4)n2)cc1-n1cnc(C2CC2)c1 [Example 10, 5-(4-Cyclopropyl-1H-imidazol-1-yl)-N-(6-(5,5-dimethyl-6,7-dihydro-5H-pyrrolo[2,1-c][1,2,4]triazol-3-yl)pyridin-2-yl)-2-fluoro-4-methylbenzamide]
Peak time tmax [1]: 0.5 h | AUC(0-t) [1]: 32.4 µg·h/mL | AUC(0-inf) [1]: 32.4 µg·h/mL | half-life [1]: 1.6 h | MRT [1]: 3 h | Cmax [1]: 8.99 µg/mL | IC50 [2]: 1 nM | ALT(U/L) reduction rate (%) [3]: 50% | AST(U/L) reduction rate (%) [3]: 46%

Cc1cc(F)c(C(=O)Nc2cccc(-c3nnc4n3[C@H](C)CC4)n2)cc1-n1cnc(C(C)(C)C)c1 [Example 15, (R)-5-(4-(tert-Butyl)-1H-imidazol-1-yl)-2-fluoro-4-methyl-N-(6-(5-methyl-6,7-dihydro-5H-pyrrolo[2,1-c][1,2,4]triazol-3-yl)pyridin-2-yl)benzamide]
IC50 [2]: 1.4 nM | ALT(U/L) reduction rate (%) [3]: 54% | AST(U/L) reduction rate (%) [3]: 58%

C=C[C@@H]1CCc2nnc(-c3cccc(NC(=O)c4cc(-n5cnc(C6CC6)c5)c(C)cc4F)n3)n21 [Example 37, (S)-5-(4-Cyclopropyl-1H-imidazol-1-yl)-2-fluoro-4-methyl-N-(6-(5-vinyl-6,7-dihydro-5H-pyrrolo[2,1-c][1,2,4]triazol-3-yl)pyridin-2-yl)benzamide]
Peak time tmax [1]: 0.5 h | AUC(0-t) [1]: 43.9 µg·h/mL | AUC(0-inf) [1]: 48 µg·h/mL | half-life [1]: 2.1 h | MRT [1]: 3.4 h | Cmax [1]: 11.7 µg/mL | IC50 [2]: 3.5 nM | ALT(U/L) reduction rate (%) [3]: 57% | AST(U/L) reduction rate (%) [3]: 62%

Cc1cc(F)c(C(=O)Nc2cccc(-c3nnc4n3[C@H](C(F)(F)F)CC4)n2)cc1-n1cnc(C2CC2)c1 [Example 40, (S)-5-(4-Cyclopropyl-1H-imidazol-1-yl)-2-fluoro-4-methyl-N-(6-(5-(trifluoromethyl)-6,7-dihydro-5H-pyrrolo[2,1-c][1,2,4]triazol-3-yl)pyridin-2-yl)benzamide]
Peak time tmax [1]: 0.5 h | AUC(0-t) [1]: 26.8 µg·h/mL | AUC(0-inf) [1]: 28.3 µg·h/mL | half-life [1]: 1.7 h | MRT [1]: 2.7 h | Cmax [1]: 10.7 µg/mL | IC50 [2]: 1.9 nM | ALT(U/L) reduction rate (%) [3]: 50% | AST(U/L) reduction rate (%) [3]: 65%

C#C[C@@H]1CCc2nnc(-c3cccc(NC(=O)c4cc(-n5cnc(C6CC6)c5)c(C)cc4F)n3)n21 [Example 43, (S)-5-(4-Cyclopropyl-1H-imidazol-1-yl)-N-(6-(5-ethynyl-6,7-dihydro-5H-pyrrolo[2,1-c][1,2,4]triazol-3-yl)pyridin-2-yl)-2-fluoro-4-methylbenzamide]
Peak time tmax [1]: 0.5 h | AUC(0-t) [1]: 80.9 µg·h/mL | AUC(0-inf) [1]: 81.9 µg·h/mL | half-life [1]: 3.9 h | MRT [1]: 5.3 h | Cmax [1]: 12.2 µg/mL | IC50 [2]: 1.9 nM | ALT(U/L) reduction rate (%) [3]: 65% | AST(U/L) reduction rate (%) [3]: 58%

CC[C@@H]1CCc2nnc(-c3cccc(NC(=O)c4cc(-n5cnc(C6CC6)c5)c(C)cc4F)n3)n21 [Example 55, (R)-5-(4-Cyclopropyl-1H-imidazol-1-yl)-N-(6-(5-ethyl-6,7-dihydro-5H-pyrrolo[2,1-c][1,2,4]triazol-3-yl)pyridin-2-yl)-2-fluoro-4-methylbenzamide]
Peak time tmax [1]: 0.5 h | AUC(0-t) [1]: 31.5 µg·h/mL | AUC(0-inf) [1]: 31.5 µg·h/mL | half-life [1]: 1.4 h | MRT [1]: 2.9 h | Cmax [1]: 9.33 µg/mL | IC50 [2]: 1.9 nM | ALT(U/L) reduction rate (%) [3]: 56% | AST(U/L) reduction rate (%) [3]: 55%

Cc1cc(F)c(C(=O)Nc2cccc(-c3nnc4n3C3(CC4)CC3)n2)cc1-n1cnc(C2CC2)c1 [Example 61, 5-(4-Cyclopropyl-1H-imidazol-1-yl)-N-(6-(6′,7′-dihydrospiro[cyclopropane-1,5′-pyrrolo[2,1-c][1,2,4]triazol]-3′-yl)pyridin-2-yl)-2-fluoro-4-methylbenzamide]
Peak time tmax [1]: 1 h | AUC(0-t) [1]: 68.6 µg·h/mL | AUC(0-inf) [1]: 68.8 µg·h/mL | half-life [1]: 2.7 h | MRT [1]: 4.5 h | Cmax [1]: 11.4 µg/mL | IC50 [2]: 1.9 nM | ALT(U/L) reduction rate (%) [3]: 50% | AST(U/L) reduction rate (%) [3]: 54%

Cc1cc2c(cc1-n1cnc(C3CC3)c1)C(=O)N(c1cccc(-c3nnc4n3C3(CC4)CC3)n1)C2 [Example 64, 6-(4-Cyclopropyl-1H-imidazol-1-yl)-2-(6-(6′,7′-dihydrospiro[cyclopropane-1,5′-pyrrolo[2,1-c][1,2,4]triazol]-3′-yl)pyridin-2-yl)-5-methylisoindolin-1-one]
IC50 [2]: 5.5 nM | ALT(U/L) reduction rate (%) [3]: 51% | AST(U/L) reduction rate (%) [3]: 47%

Cc1cc2c(cc1-n1cnc(C3CC3)c1)C(=O)N(c1cccc(-c3nnc4n3[C@H](C(F)(F)F)CC4)n1)C2 [Example 65, (S)-6-(4-Cyclopropyl-1H-imidazol-1-yl)-5-methyl-2-(6-(5-(trifluoromethyl)-6,7-dihydro-5H-pyrrolo[2,1-c][1,2,4]triazol-3-yl)pyridin-2-yl)isoindolin-1-one]
IC50 [2]: 9.4 nM | ALT(U/L) reduction rate (%) [3]: 46% | AST(U/L) reduction rate (%) [3]: 52%

Cc1cc(F)c(C(=O)Nc2cccc(-c3nncn3C(C)C)n2)cc1-n1cnc(C2CC2)c1 [GS-4997, reference compound]
ALT(U/L) reduction rate (%) [3]: 40% | AST(U/L) reduction rate (%) [3]: 35%
